From ChEMBL document CHEMBL1125820, “Structure-activity relationship of mutagenic aromatic and heteroaromatic nitro compounds. Correlation with molecular orbital energies and hydrophobicity” (J Med Chem, 1991)

Assays:
[1] = Partition coefficient (logP); conditions: octanol/water
Salmonella typhimurium [2] = test: Mutagenic activity in Salmonella Typhimurium TA98 using Ames test; Activity is log of revertants / nmol; a= inactive; assay type: functional, Salmonella enterica subsp. enterica serovar Typhimurium
Salmonella typhimurium [3] = test: Mutagenic activity in an Ames test on Salmonella Typhimurium TA98; Activity is log of revertants/nmol; assay type: functional, Salmonella enterica subsp. enterica serovar Typhimurium; parameters: scale not given here

Structure (SMILES)	logP [1]	Activity (Salmonella typhimurium [2])	Activity (Salmonella typhimurium [3])
O=[N+]([O-])c1c2ccccc2cc2ccccc12	4.78	-0.95	–
Nc1cccc(-c2cccc([N+](=O)[O-])c2)c1	2.68	–	-1.7
O=[N+]([O-])c1ccc2ccc3c4c(cc5ccc1c2c53)C=CC(O)C4O (stereo not given)	3.01	–	2.8
Nc1ccc(Cl)cc1[N+](=O)[O-] [4-CHLORO-2-NITROANILINE]	2.72	–	-2
O=[N+]([O-])c1ccc2cn[nH]c2c1	2.06	–	0.66
O=[N+]([O-])c1ccc2ccc3c([N+](=O)[O-])cc([N+](=O)[O-])c4ccc1c2c34	4.18	–	4.99
O=[N+]([O-])c1ccc(-c2cccc([N+](=O)[O-])c2)cc1	3.52	–	0.23
Nc1ccc(-c2cccc([N+](=O)[O-])c2)cc1	2.68	–	-1.52
O=[N+]([O-])c1ccc2ccc3cccc4ccc1c2c34 [1-NITROPYRENE]	4.69	–	2.78
O=[N+]([O-])c1ccc2c3ccccc3c3c([N+](=O)[O-])ccc4ccc1c2c43	5.61	–	1.99
O=[N+]([O-])C1=CC=CC2Nc3ccccc3NC12 (stereo not given)	2.52	–	0.87
CCOc1ccccc1[N+](=O)[O-]	2.35	–	-2.22
O=[N+]([O-])c1ccc2c(c1)Cc1cc(F)ccc1-2	4.11	–	2.68
O=[N+]([O-])c1cccc2cn[nH]c12 [7-NITROINDAZOLE]	1.75	–	0.11
O=[N+]([O-])c1ccc2c(c1)Cc1cc(Cl)ccc1-2	4.68	–	3.11
O=[N+]([O-])c1cc2c3c(cccc3c1)-c1ccccc1-2	4.69	–	3.01
Cc1nc2cc([N+](=O)[O-])ccc2[nH]1	1.94	–	-0.51
O=[N+]([O-])c1cc2ccc3ccc4ccc5ccc6ccc1c1c6c5c4c3c21	6.79	–	0.45
O=[N+]([O-])c1cc2c3c(cccc3c1[N+](=O)[O-])-c1ccccc1-2	4.44	–	2.62
O=[N+]([O-])c1cc2c3ccccc3ccc2c2ccccc12	5.41	–	1.75
O=[N+]([O-])c1ccc2ccc3cc4ccccc4c4ccc1c2c34	5.87	–	2.63
O=[N+]([O-])c1ccc2c(c1)C=CC2	2.74	–	0.08
O=[N+]([O-])c1ccc2ccc3c(O)ccc4ccc1c2c43	4.19	–	1.34
Cn1ncc2cccc([N+](=O)[O-])c21	1.77	–	-1
O=[N+]([O-])c1cc2c3c(c1)CCc1cc([N+](=O)[O-])cc(c1-3)CC2	5.02	–	3.5
O=[N+]([O-])c1ccc(-c2ccccc2)cc1	3.77	–	-0.3
O=[N+]([O-])c1ccc2ccc3c4ccccc4cc4ccc1c2c43	5.87	–	2.82
O=C(Nc1ccc2c(c1)Cc1cc([N+](=O)[O-])ccc1-2)C(F)(F)F	4.23	–	2.81
O=[N+]([O-])c1cc2cccnc2c2ncccc12	1.84	–	0.59
O=[N+]([O-])C1Cc2cccc3cccc1c23 (stereo not given)	2.72	–	1.77
